Assays:
NAD = NAD accumulation assay; assay type: cell-based, mouse; conditions: activated pMel-1 CD8 T cells, 48 h
Method: pMel-1 CD8 T cells were activated with gp100 in the presence or absence of PARPi for 48 h. Cells were washed with cold PBS and pelleted in a microcentrifuge tube by centrifuging at 2,000 rpm for 5 minutes. Cells were lysed with 400 μL of NADH/NAD extraction buffer and then centrifuged at 13,000 g for 10 minutes to remove insoluble material. The supernatants were collected and the levels of NAD in the cell lysates were estimated using the NAD/NADH Quantitation Kit according to the manufacturing kit (Millipore NAD/NADH Quantification Kit Sigma #MAK037).

WT CD8 T cells = WT CD8 T cells activated with anti-CD3/CD28; assay type: cell-based, mouse; conditions: anti-CD3/CD28 activation in the presence of PARPi, 48 h
SIRT-1/FOXO1 = SIRT-1/FOXO1 signaling, Western blot and immunofluorescence; assay type: cell-based, mouse
Method: pMel-1 CD8 T cells were activated with gp100 in the presence or absence of PARPi for 48 h containing glass coverslips. Cells were then washed with PBS (Mg^+ca^+), fixed for 5 min with 4% PFA and permeabilized in PBS/triton 1×. […] Finally, DAPI staining was applied. Images were acquired with a Leica TCS-SP5II upright confocal microscope (Leica Microsystems).

[1] = test system: CD8+ T cells in TME of TC-1 tumors; assay: Immune profiling of the TME, TC-1 tumor-bearing mice; assay type: in vivo, mouse
Excerpt: Two-to-three days after the second vaccination, mice in the various groups were euthanized and tumors were collected.
A total of 0.1-0.2×10^6 cells per sample were stained for Live/Dead staining followed by fixation and permeabilization. For IFNγ and granzyme B (Gzm B) staining, BD Cytofix/Cytoperm (catalog no. 51-2090KZ) and BD Perm/Wash (catalog no. 51-2091KZ) buffer set were used according to the manufacturer's instructions (BD Pharmingen). CD8^+ T cells from tumor samples were stained similarly. Data acquisition was performed on a BD LSR II flow cytometer using the software FACS Diva v.9.0. Results were analyzed using FlowJo software (TreeStar). MitoFM, a green-fluorescent mitochondrial stain, which localizes to mitochondria, was used as described previously (Sukumar et al., Cell Metab 23 (1): 63-76, 2016).

pMel-1 CD8 T cells = assay: Metabolomics and lipidomics of activated CD8 T cells; assay type: cell-based, mouse; conditions: PARPi-treated vs gp100 activated, 48 h
Method: Targeted metabolomics method, developed in-house, was used to quantitate 270 endogenous metabolites using QTRAP® 7500 LC-MS/MS System (Sciex, MA, USA). For this purpose, 20 μL of PBS was added to the cell pellet and sample tube was plunged into dry ice for 30 seconds and 37° C. water bath for 90 seconds. This cycle was repeated for two more times and then samples were sonicated for 1 minute and 100 μL of extraction buffer (methanol/water 50/50) containing 200 ng/ml of debrisoquine (DBQ) as internal standard for positive mode and 200 ng/mL of 4-nitrobenzoic acid as internal standard for negative mode was added. The samples were vortexed for 1 min and kept on ice for 20 minutes followed by addition of 100 μL of ACN. The samples were incubated at −20° C. for 20 minutes for protein precipitation. The samples were centrifuged at 13,000 rpm for 20 minutes at 4° C. The supernatant was transferred to MS vial for LC-MS analysis. 20 μL of each prepared sample was mixed to generate the pooled QC sample.
Five microliter of the prepared sample was injected onto a Kinetex 2.6 μm polar C18 100 Å 100×3.0 mm (Phenomenex, CA, USA) using SIL-30AC autosampler (Shimadzu) connected with a high flow LC-30AD solvent delivery unit (Shimadzu) and CBM-20A communication bus module (Shimadzu) online with QTRAP 5500 (Sciex, MA, USA) operating in positive and negative ion mode. A binary solvent comprising of water with 0.1% formic acid (solvent A) and acetonitrile with 0.1% formic acid (solvent B) was used. The extracted metabolites were resolved at 0.2 mL/min flow rate. The LC gradient conditions were as follows: Initial—100% A, 0% B for 2.1 minutes; 14 minutes—5% A, 95% B till 15 minutes; 15.1 minutes—100% A, 0% B till 20 minutes. The auto sampler and oven were kept at 15° C. and 30° C., respectively. Source and gas setting for the method were as follow: curtain gas=40, CAD gas=9, ion spray voltage=1700 V in positive mode and ion spray voltage=1600 V in negative mode, temperature=350° C., ion source gas 1=30 and ion source gas 2=50. […]

## O=C(c1cc(Cc2n[nH]c(=O)c3ccccc23)ccc1F)N1CCN(C(=O)C2CC2)CC1 [olaparib]
NAD
  accumulation of NAD: significantly enhanced
WT CD8 T cells
  generation of the CD44hiCD62Lhi population: also seen
SIRT-1/FOXO1; PARPi-treated CD8 T cells
  FOXO1 acetylation: decrease
SIRT-1/FOXO1; activated pMel-1 CD8 T cells
  SIRT-1 expression and activity: increased
SIRT-1/FOXO1; immunofluorescence and Western blot, compared to gp100-activated cells
  FOXO1 in the nucleus: increase in accumulation and expression
SIRT-1/FOXO1; total lysate
  FOXO1 phosphorylation: significant reduction
[1]; TC1, vaccinated in the presence of PARPi vs either treatment alone
  number of total and antigen-specific CD8+ T cells in TME: significant increase
[1]; TC-1, PARPi given with the vaccine
  IFNγ+ and granzyme B+ total and antigen-specific CD8+ T cells: enhanced functionality
[1]; TC-1, PARPi in combination with vaccine
  CD44hiCD62Lhi CD8 T cells within the TCM compartment in the TME: appearance of a distinct population
[1]; TC-1, PARPi with vaccine
  vaccine-induced total and antigen-specific effector (TEM) and central memory (TCM) CD8 T cells in the TME: increased
[1]; TC-1 TME
  proliferation of CD8 T cells as determined by Ki67 expression: significant decrease
pMel-1 CD8 T cells
  TAGs (lipidomic analysis): increased level
  metabolites related to TCA cycle (fumarate, malate, glutamate, FAD): significantly increased
  top 50 differentially expressed metabolites: increased

— patent US20260286302A1, “METHODS FOR PRODUCING A SUPER CENTRAL MEMORY CD8 T CELL SUBTYPE BY POLY(ADP-RIBOSE) POLYMERASE (PARP) INHIBITION AND USES THEREOF” (Georgetown University, priority 2023, published 2026)
